Measurements as given in ChEMBL document CHEMBL5344429, “1,3-Substituted β-Carboline Derivatives as Potent Chemotherapy for the Treatment of Cystic Echinococcosis” (J Med Chem, 2023).
Active and inactive are the calls of the source. The calls are words filed in the database; no cut-off is given here.

Legend:
Echinococcus granulosus [1] = test: Parasiticidal activity against Echinococcus granulosus protoscolices assessed as survival rate at 1 uM incubated for 48 hrs by eosin exclusion test; type: functional
Echinococcus granulosus [2] = test: Parasiticidal activity against Echinococcus granulosus protoscolices […] by eosin exclusion test; type: functional; details: 1152 h, time 48 day
Echinococcus granulosus [3] = test: Parasiticidal activity against Echinococcus granulosus protoscolices assessed as body shrank with irregular edge at 5 uM incubated for 4 days by H and E staining based assay; type: functional, organism-based; details: time 4.0 day
Echinococcus granulosus [4] = test: Parasiticidal activity against Echinococcus granulosus protoscolices assessed as appearance of partial shedding at 5 uM incubated for 4 days by H and E staining based assay; type: functional, organism-based; details: time 4.0 day
Echinococcus granulosus [5] = test: Parasiticidal activity against Echinococcus granulosus protoscolices assessed as appearance of relative completion of sucker at 5 uM incubated for 2 days by scanning electron microscopy; type: functional, organism-based; details: time 2.0 day
Echinococcus granulosus [6] = test: Parasiticidal activity against Echinococcus granulosus protoscolices assessed as outer skin and hooks fall off at 5 uM incubated for 2 days by scanning electron microscopy; type: functional, organism-based; details: time 2.0 day
Echinococcus granulosus [7] = test: Parasiticidal activity against Echinococcus granulosus assessed as cyst destruction at 100 uM incubated for 4 days by scanning electron microscopy; type: functional, organism-based; details: time 4.0 day
Echinococcus granulosus [8] = test: Parasiticidal activity against Echinococcus granulosus microcyst infected in kunming mouse assessed as mean cyst weight at 50 mg/kg, ip administered for 14 days; type: functional; details: time 14 day
Echinococcus granulosus [9] = test: Parasiticidal activity against Echinococcus granulosus microcyst infected in kunming mouse assessed as mean cyst weight at 50 mg/kg, ip administered for 28 days; type: functional; details: time 28 day
Echinococcus granulosus [10] = test: Parasiticidal activity against Echinococcus granulosus microcyst infected in kunming mouse assessed as mean cyst weight at 25 mg/kg, ip administered for 14 days; type: functional; details: time 14 day
Echinococcus granulosus [11] = test: Parasiticidal activity against Echinococcus granulosus microcyst infected in kunming mouse assessed as mean cyst weight at 25 mg/kg, ip administered for 28 days; type: functional; details: time 28 day
Echinococcus granulosus [12] = test: Parasiticidal activity against Echinococcus granulosus microcyst infected in kunming mouse assessed as mean cyst weight at 12.5 mg/kg, ip administered for 14 days; type: functional; details: time 14 day
Echinococcus granulosus [13] = test: Parasiticidal activity against Echinococcus granulosus microcyst infected in kunming mouse assessed as mean cyst weight at 12.5 mg/kg, ip administered for 28 days; type: functional; details: time 28 day
Echinococcus granulosus [14] = test: Parasiticidal activity against Echinococcus granulosus microcyst infected in kunming mouse assessed as reduction in cyst weight at 50 mg/kg, ip administered for 14 days relative to control; type: functional; design: scale not given: the % may be the effect or the level left; details: time 14 day
Echinococcus granulosus [15] = test: Parasiticidal activity against Echinococcus granulosus microcyst infected in kunming mouse assessed as reduction in cyst weight at 50 mg/kg, ip administered for 28 days relative to control; type: functional; design: scale not given: the % may be the effect or the level left; details: time 28 day
Echinococcus granulosus [16] = test: Parasiticidal activity against Echinococcus granulosus microcyst infected in kunming mouse assessed as reduction in cyst weight at 25 mg/kg, ip administered for 14 days relative to control; type: functional; design: scale not given: the % may be the effect or the level left; details: time 14 day
Echinococcus granulosus [17] = test: Parasiticidal activity against Echinococcus granulosus microcyst infected in kunming mouse assessed as reduction in cyst weight at 25 mg/kg, ip administered for 28 days relative to control; type: functional; design: scale not given: the % may be the effect or the level left; details: time 28 day
Echinococcus granulosus [18] = test: Parasiticidal activity against Echinococcus granulosus microcyst infected in kunming mouse assessed as reduction in cyst weight at 12.5 mg/kg, ip administered for 14 days relative to control; type: functional; design: scale not given: the % may be the effect or the level left; details: time 14 day
Echinococcus granulosus [19] = test: Parasiticidal activity against Echinococcus granulosus microcyst infected in kunming mouse assessed as reduction in cyst weight at 12.5 mg/kg, ip administered for 28 days relative to control; type: functional; design: scale not given: the % may be the effect or the level left; details: time 28 day
Echinococcus granulosus [20] = test: Parasiticidal activity against intraperitoneal cystic Echinococcus granulosus infected in Kunming mouse assessed as decrease number of microvilli at 50 mg/kg, ip administered for 28 days by TEM analysis; type: functional, organism-based; details: time 28.0 day
Echinococcus granulosus [21] = test: Parasiticidal activity against intraperitoneal cystic Echinococcus granulosus infected in Kunming mouse assessed as appearance of unclear cortex at 50 mg/kg, ip administered for 28 days by TEM analysis; type: functional, organism-based; details: time 28.0 day
Echinococcus granulosus [22] = test: Parasiticidal activity against intraperitoneal cystic Echinococcus granulosus infected in Kunming mouse assessed as reduction in cell count with clear nucleolus at 50 mg/kg, ip administered for 28 days by TEM analysis; type: functional, organism-based; details: time 28.0 day
Echinococcus granulosus [23] = test: Parasiticidal activity against Echinococcus granulosus protoscolices assessed as death rate at 1 uM incubated for 48 hrs by eosin exclusion test; type: functional
[24] = Neurotoxicity in Kunming mouse assessed as loosely arranged pyramidal cells in brain at 50 mg/kg, ip administered for 28 days by H and E staining based assay; type: toxicity, organism-based; details: in vivo, 672 h, time 28 day
[25] = Neurotoxicity in Kunming mouse assessed as swollen pyramidal cells in brain at 50 mg/kg, ip administered for 28 days by H and E staining based assay; type: toxicity, organism-based; details: in vivo, 672 h, time 28 day
[26] = Neurotoxicity in Kunming mouse assessed as deformed pyramidal cells in brain at 50 mg/kg, ip administered for 28 days by H and E staining based assay; type: toxicity, organism-based; details: in vivo, 672 h, time 28 day
[27] = Neurotoxicity in Kunming mouse assessed as widened perinuclear space in hippocampal neurons at 50 mg/kg, ip administered for 28 days by TEM analysis; type: toxicity, organism-based; details: in vivo, 672 h, time 28 day
[28] = Neurotoxicity in Kunming mouse assessed as incomplete mitochondrial membrane in hippocampal at 50 mg/kg, ip administered for 28 days by TEM analysis; type: toxicity, organism-based; details: in vivo, 672 h, time 28 day
[29] = Neurotoxicity in Kunming mouse assessed as partial cristae in hippocampal at 50 mg/kg, ip administered for 28 days by TEM analysis; type: toxicity, organism-based; details: in vivo, 672 h, time 28 day
[30] = Neurotoxicity in Kunming mouse assessed as blurred synaptic space in hippocampal at 50 mg/kg, ip administered for 28 days by TEM analysis; type: toxicity, organism-based; details: in vivo, 672 h, time 28 day
[31] = Neurotoxicity in Kunming mouse assessed as increased postsynaptic density in hippocampal at 50 mg/kg, ip administered for 28 days by TEM analysis; type: toxicity, organism-based; details: in vivo, 672 h, time 28 day
Echinococcus granulosus [32] = test: Induction of autophagy in Echinococcus granulosus protoscolices assessed as decrease in p62 expression level at 5 uM measured after 4 days by Western blot analysis; type: functional, organism-based; details: time 4.0 day
Echinococcus granulosus [33] = test: Induction of autophagy in Echinococcus granulosus protoscolices assessed as increase in ATG5 expression level at 5 uM measured after 4 days by Western blot analysis; type: functional, organism-based; details: time 4.0 day
Echinococcus granulosus [34] = test: Induction of autophagy in Echinococcus granulosus protoscolices assessed as increase in Beclin1 expression level at 5 uM measured after 4 days by Western blot analysis; type: functional, organism-based; details: time 4.0 day

## CCCSc1ccc2[nH]c(NC(=O)OC)nc2c1 [ALBENDAZOLE]
Echinococcus granulosus [1]
  Activity: 100%
Echinococcus granulosus [2]
  LC50: 154 µM
Echinococcus granulosus [3]
  Activity: Active
Echinococcus granulosus [4]
  Activity: Active
Echinococcus granulosus [5]
  Activity: Active
Echinococcus granulosus [6]
  Activity: Active
Echinococcus granulosus [7]
  Activity: inactive
Echinococcus granulosus [8]
  Activity: 23.3 mg
Echinococcus granulosus [9]
  Activity: 24.2 mg
Echinococcus granulosus [10]
  Activity: 26.2 mg
Echinococcus granulosus [11]
  Activity: 25.3 mg
Echinococcus granulosus [12]
  Activity: 29.5 mg
Echinococcus granulosus [13]
  Activity: 26.7 mg
Echinococcus granulosus [14]
  Activity: 54.7%
Echinococcus granulosus [15]
  Activity: 55.4%
Echinococcus granulosus [16]
  Activity: 49.16%
Echinococcus granulosus [17]
  Activity: 53.45%
Echinococcus granulosus [18]
  Activity: 42.77%
Echinococcus granulosus [19]
  Activity: 50.9%
Echinococcus granulosus [20]
  Activity: Active
Echinococcus granulosus [21]
  Activity: Active
Echinococcus granulosus [22]
  Activity: Active

## COc1ccccc1-c1nc(C(=O)Nc2ccc(CN3CCC(N4CCCCC4)CC3)cc2)cc2c1[nH]c1ccccc12
Echinococcus granulosus [23]
  Activity: Active
Echinococcus granulosus [2]
  LC50: 13.4 µM

## Cc1ccc(-c2nc(NC(=O)c3ccc(CN4CCC(N5CCCCC5)CC4)cc3)cc3c2[nH]c2ccccc23)cc1
Echinococcus granulosus [23]
  Activity: Active
Echinococcus granulosus [2]
  LC50: 12.5 µM

## COc1cc(OC)cc(-c2nc(C(=O)Nc3ccc(CN4CCC(N5CCCCC5)CC4)cc3)cc3c2[nH]c2ccccc23)c1
Echinococcus granulosus [23]
  Activity: Active
Echinococcus granulosus [2]
  LC50: 7.16 µM

## COc1cccc(-c2nc(C(=O)Nc3ccc(CN4CCC(N5CCCCC5)CC4)cc3)cc3c2[nH]c2ccccc23)c1OC
Echinococcus granulosus [23]
  Activity: Active
Echinococcus granulosus [2]
  LC50: 5.8 µM

## COc1ccc(-c2nc(NC(=O)c3ccc(CN4CCCN(C)CC4)cc3)cc3c2[nH]c2ccccc23)cc1OC
Echinococcus granulosus [23]
  Activity: Active
Echinococcus granulosus [2]
  LC50: 13.2 µM

## COc1ccc2c(c1)[nH]c1c(C)nccc12 [HARMINE]
Echinococcus granulosus [1]
  Activity: 100%
Echinococcus granulosus [2]
  LC50: 135 µM
Echinococcus granulosus [3]
  Activity: Active
Echinococcus granulosus [4]
  Activity: Active
Echinococcus granulosus [5]
  Activity: Active
Echinococcus granulosus [6]
  Activity: Active
Echinococcus granulosus [7]
  Activity: inactive
Echinococcus granulosus [8]
  Activity: 22.7 mg
Echinococcus granulosus [9]
  Activity: 23.4 mg
Echinococcus granulosus [10]
  Activity: 25.1 mg
Echinococcus granulosus [11]
  Activity: 24.8 mg
Echinococcus granulosus [12]
  Activity: 27.8 mg
Echinococcus granulosus [13]
  Activity: 26.6 mg
Echinococcus granulosus [14]
  Activity: 55.97%
Echinococcus granulosus [15]
  Activity: 56.93%
Echinococcus granulosus [16]
  Activity: 51.2%
Echinococcus granulosus [17]
  Activity: 54.4%
Echinococcus granulosus [18]
  Activity: 46.13%
Echinococcus granulosus [19]
  Activity: 67.17%
Echinococcus granulosus [20]
  Activity: Active
Echinococcus granulosus [21]
  Activity: Active
Echinococcus granulosus [22]
  Activity: Active
[24]
  Activity: Toxic
[25]
  Activity: Toxic
[26]
  Activity: Toxic
[27]
  Activity: Toxic
[28]
  Activity: Toxic
[29]
  Activity: Toxic
[30]
  Activity: Toxic
[31]
  Activity: Toxic
Echinococcus granulosus [32]
  Activity: Active
Echinococcus granulosus [33]
  Activity: Active
Echinococcus granulosus [34]
  Activity: Active

## COc1ccc(-c2nc(C(=O)Nc3ccc(CN4CCC(N5CCCCC5)CC4)cc3)cc3c2[nH]c2ccccc23)cc1OC
Echinococcus granulosus [23]
  Activity: Active
Echinococcus granulosus [2]
  LC50: 6.49 µM
